Patent US20260202397A1, “POTENCY ASSAY FOR PHARMACEUTICAL PRODUCTS” (REPAIRON MUSCLE UG, priority 2022, published 2026)
Converted amounts (≈) assume the structure as drawn. “Also recorded” adds a separate entry of the source.

Columns and labels:
[1] = tested on: BioEngineered Neuronal Organoids (BENOs); assay: Multi-electrode array (MEA) recording of BENO network activity; assay type: cell-based, human; details: for Burst Frequency (Hz) / Interspike Interval in a burst / Network Burst (NB) Frequency / Number of Active Electrodes / Weighted Mean Firing Rate (Hz) / Burst Frequency (Hz), effect vs reference BENO / Interspike Interval in a burst (s), effect vs reference BENO / Network Burst (NB) Frequency, effect vs reference BENO / Number of Active Electrodes, effect vs reference BENO / Weighted Mean Firing Rate (Hz), effect vs reference BENO: CNQX 15 μM; for Burst frequency, change in words / Weighted mean firing rate, change in words: text and figure legend
Excerpt: BioEngineered Neuronal Organoids (BENOs) were generated in line with the BENO generation protocol provided in Zafeiriou et al. (Nature Communications, 2020, 11:3791, https://doi.org/10.1038/s41467-020-17521-w).
The method used for this illustrative example was a multi-electrode array (MEA) recording. In particular, six-well plates with 64 platinum microelectrodes arrays per well (0.04 MQ/microelectrode, 30 μm microelectrode diameter, 200 μm spacing) were coated with Matrigel™ 1:120 diluted in PBS for 1 h at room temperature prior seeding. One or two slices (thickness: 300 μm) were placed into a MEA well and immobilized by a concentrically coiled tungsten ring. 10-15 min recordings/2 h were performed every other day for up to 60 days using a Maestro pro MEA system (Axion Biosystems). Data recordings were automatically scheduled with the Axion Software (AxIS Navigator) using the manufacturer's Spontaneous Neural Configuration. Data analysis was performed using the manufacturer's standalone tools, Neural Metric Tool, and AxIS Metric Plotting Tool (Axion Biosystems). […] Spike bursts were identified using an ISI threshold requiring a minimum number of five spikes with a maximum ISI of 100 ms. Network Bursts (NB) were identified by an envelope algorithm with a threshold of 1.25, minimum IBI interval of 100 ms, 75% burst inclusion with a minimum of 10% active electrodes.

[2] = Pirfenidone IC50 in vitro
[3] = tested on: Engineered connective tissues (ECT); assay: ECT stiffness (Young's modulus) by ultimate tensile testing; assay type: cell-based, human; details: 5 ng/ml TGF-β1, day 10 of the drug effect testing phase (absolute day 13), 8 replicates
Method: Reference ECT were generated and treated similar as described herein in Example 1. In contrast to the pole deflection analysis disclosed in Example 1 herein, 8 ECT were harvested for the ultimate tensile testing at the moment when the plateau was reached and before a drug solvent was applied with or without TGF-β1. Residual ECT were cultured for further 10 days. Then, macroscopic images were taken from the ECT on the poles to estimate their cross-sectional areas based on the observed ECT thicknesses. Ultimate tensile testing was performed with a dynamic mechanical analyzer (DMA). Therefore, ECT were loaded onto two hooks clamped to a DMA in a 37° C. tempered organ bath filled with PBS. Then, uniaxial stretch at a constant linear rate of approximately 1% (0.03 mm/s) was applied until the ECT ruptured. The recorded force traces were converted into stress-strain curves. The Young's modulus representing the stiffness of the ECT was analyzed by determining the slope of the linear part of curve within the elastic region (FIG. 3A). All measurements were performed in 8 replicates. […]

[4] = tested on: Engineered connective tissues (ECT); assay: ECT contraction by pole deflection analysis (reference ECT +/- TGF-β1); assay type: cell-based, human; details: 5 ng/ml TGF-β1 applied at day 4, day 10 of the drug effect testing phase (absolute day 13), 6 technical replicates
Excerpt: The general experimental procedure was identical for all used cells, including primary fibroblasts and iPSC-StC. Supporting information in view of the ECT model, in particular its generation, may also be found in Santos et al. (2021, Fibroblast Derived Human Engineered Connective Tissue for Screening Applications. J. Vis. Exp. e62700, doi: 10.3791/62700, PMID: 34487119), Santos et al. (2022, Using different geometries to modulate the cardiac fibroblast phenotype and the biomechanical properties of engineered connective tissues. Biomater Adv. 139:213041, PMID: 35909053), and EP20188364. In particular, acid solubilized, collagen type 1 was mixed 1:1 with 2× DMEM containing 20% fetal calf serum and antibiotics. […]
Pole deflection measurement and platforms are well-established in the art, cf. e.g. WO2017/207431 (also granted as DE 10 2016 110 328 B3). […] Pole deflection as a function of ECT compaction was calculated as follows: 100×(pole distanceday 0-pole distanceday x)/pole distanceday 0.
Reference ECT were analyzed, which were treated with a drug solvent in absence or presence of TGF-β1, with TGF-β1 application serving as additional reference with respect to pro-fibrotic drug characterization. […]

[5] = BENO day 50 to day 60, 10 min treatment, PIC 58 μM, 4 tissues
[6] = BENO day 60, 10 min treatment, PIC 58 μM, threshold 2× SD
[7] = BENO day 60, treated vs reference
[8] = BENO day 60, treated vs reference, listed as Picrotoxin

| Compound | Burst Frequency (Hz) [1, 5] | Interspike Interval in a burst [1, 5] | Network Burst (NB) Frequency [1, 5] | Number of Active Electrodes [1, 5] | Weighted Mean Firing Rate (Hz) [1, 5] | Burst Frequency (Hz), effect vs reference BENO [1, 6] | Interspike Interval in a burst (s), effect vs reference BENO [1, 6] | Network Burst (NB) Frequency, effect vs reference BENO [1, 6] | Number of Active Electrodes, effect vs reference BENO [1, 6] | Weighted Mean Firing Rate (Hz), effect vs reference BENO [1, 6] | Network burst frequency, change in words [1, 7] | Burst frequency, change in words [1, 7] | Weighted mean firing rate, change in words [1, 7] | also measured |
| --- | --- | --- | --- | --- | --- | --- | --- | --- | --- | --- | --- | --- | --- | --- |
| N#Cc1cc2[nH]c(=O)c(=O)[nH]c2cc1[N+](=O)[O-] [CNQX, Cyanquixalin] | 0.02 Hz | 0.03 s | 0 | 2 | 0.6 Hz | ↔ (<2SD change) | ↑ (>2SD increase) | ↓ (>2SD decrease) | ↓ (>2SD decrease) | ↓ (>2SD decrease) | decrease | reduced to the predetermined threshold of 2× SD, though not exceeding it; also recorded: decrease; also recorded: reduced | decrease; also recorded: reduced | Interspike interval in a burst, change in words ([1]; BENO day 60, after treatment): higher |
| C=C(C)[C@@H]1[C@H]2OC(=O)[C@@H]1[C@]1(O)C[C@H]3OC34C(=O)O[C@H]2[C@@]41C.CC(C)(O)[C@@H]1[C@H]2OC(=O)[C@@H]1[C@]1(O)C[C@H]3OC34C(=O)O[C@H]2[C@@]41C (stereo partly shown) [PIC, Picrotoxin] | 0.2 Hz | 0.02 s | 0.09 | 23 | 4.7 Hz | ↑ (>2SD increase) | ↔ (<2SD change) | ↑ (>2SD increase) | ↔ (<2SD change) | ↑ (>2SD increase) | increased | increase | increase | Interspike Interval in a NB [1, 5]: 0.002 s; NB Duration [1, 5]: 1.4 ± 0.4 s; NB percentage [1, 5]: 43 ± 42; Spontaneous activity, change in words ([1]; BENO day 60): increased; Interspike Interval in a NB (s), effect vs reference BENO [1, 6]: ↔ (<2SD change); NB Duration (s), effect vs reference BENO [1, 6]: ↑ (>2SD increase); NB percentage, effect vs reference BENO [1, 6]: ↔ (<2SD change); Network burst duration (network burst complexity), change in words [1, 7]: decreased; Burst frequency, change in words [1, 8]: increases; Weighted mean firing rate, change in words [1, 8]: increased |
| Cc1ccc(=O)n(-c2ccccc2)c1 [Pirfenidone] | – | – | – | – | – | – | – | – | – | – | – | – | – | IC50 [2]: 430 µg/mL (≈ 2320 µM) |
| TGF-B1: pro-fibrotic cytokine applied at 5 ng/ml to reference ECT | – | – | – | – | – | – | – | – | – | – | – | – | – | Young's modulus (kPa) [3]: 76.4 kPa; Contraction (%) [4]: 39.4% |
